Values quoted from earlier work, collected in patent US20240041963A1, “A NUTRACEUTICALS FORMULATION WITH AN ENHANCED ORGANOLEPTIC PROPERTIES USED FOR SCALP AND HAIR CARE” (DiaBliss Consumer Products Pvt Ltd, priority 2020, published 2024).
Where two headings read alike, the source gives them in different places.

How the values were obtained:
[1] = system: Male Patients with Androgenetic Alopecia; conditions: 30 men, 5 mg oral; for Hair Diameter: Day 0 58.5
[2] = system: Male Patients with Androgenetic Alopecia; conditions: 30 men, 5 mg oral; for Hair Density in 1 sq cm area: Day 0 182.5
men with hair loss = conditions: according to the American Academy of Dermatology

| SMILES | Hair Diameter Increase vs Day 0 ([1]; Week 12 (Day 84)) [%] | Hair Diameter ([1]; Week 12 (Day 84)) [µm] | Hair Diameter Increase vs Day 0 ([1]; Week 24 (Day 168)) [%] | Hair Diameter ([1]; Week 24 (Day 168)) [µm] | Hair Density Increase vs Day 0 ([2]; Week 12 (Day 84)) [%] | Hair Density in 1 sq cm area ([2]; Week 12 (Day 84)) | Hair Density Increase vs Day 0 ([2]; Week 24 (Day 168)) [%] | Hair Density in 1 sq cm area ([2]; Week 24 (Day 168)) | men in whom it slows hair loss (men with hair loss) | men in whom it stimulates regrowth (men with hair loss) |
| --- | --- | --- | --- | --- | --- | --- | --- | --- | --- | --- |
| Nc1cc(N2CCCCC2)nc(N)[n+]1[O-] [Oral Minoxidil, 2,4-diamino-6-piperidinopyrimidine 3-oxide] | 10.6 | 64.7 | 15.2 | 67.4 | 14.2 | 208.5 | 19.2 | 217.6 | – | – |
| CC(C)(C)NC(=O)[C@H]1CC[C@H]2[C@@H]3CC[C@H]4NC(=O)C=C[C@]4(C)[C@H]3CC[C@]12C [Finasteride] | – | – | – | – | – | – | – | – | about 88% | about 66% |
